# Data as given in patent publication US8815908B2, “Compounds and methods for inhibiting phosphate transport” (Ardelyx, Inc., priority 2010, dated 2014).
# What was measured:
# rat NaP2b (SLC34A2) = molecular target: T1, rat NaP2b (SLC34A2) (Rattus norvegicus, UniProt Q9JJ09); assay: Inhibition of NaP2b-mediated Pi uptake into transfected HEK293 cells (rat); assay type: cell-based; conditions: 33P Pi uptake, 100 uM KH2PO4, read-out: pIC50 range for rat Nap2b (converted)
# T1 construct: host or cells: HEK293
# T1 sequence (Q9JJ09 1-695): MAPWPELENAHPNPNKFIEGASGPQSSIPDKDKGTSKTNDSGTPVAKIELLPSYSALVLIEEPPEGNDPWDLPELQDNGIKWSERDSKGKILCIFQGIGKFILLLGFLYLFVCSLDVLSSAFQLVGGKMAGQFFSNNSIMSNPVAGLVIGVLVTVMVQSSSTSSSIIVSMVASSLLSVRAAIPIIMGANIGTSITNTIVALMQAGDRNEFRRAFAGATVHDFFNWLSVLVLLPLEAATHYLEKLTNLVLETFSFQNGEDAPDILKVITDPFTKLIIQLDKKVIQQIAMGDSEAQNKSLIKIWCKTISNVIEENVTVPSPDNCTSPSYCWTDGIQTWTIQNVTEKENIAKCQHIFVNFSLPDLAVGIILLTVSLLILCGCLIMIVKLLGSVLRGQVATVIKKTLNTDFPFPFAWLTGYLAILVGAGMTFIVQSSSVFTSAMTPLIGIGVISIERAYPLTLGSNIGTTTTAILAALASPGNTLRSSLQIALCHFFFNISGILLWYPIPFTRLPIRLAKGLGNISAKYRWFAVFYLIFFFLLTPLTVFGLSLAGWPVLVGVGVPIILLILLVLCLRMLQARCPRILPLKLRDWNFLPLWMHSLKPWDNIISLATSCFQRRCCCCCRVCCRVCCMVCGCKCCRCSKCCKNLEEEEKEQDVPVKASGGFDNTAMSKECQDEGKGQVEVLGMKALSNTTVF
# Description: (§1) HEK293 cells were obtained from the American Type Culture collection and propagated per their instructions. Expression clones for rat and human NaP2b (SLC34A2) were obtained from Open Biosystems (Catalog numbers MRN1768-9510282, and MHS1010-99823026, respectively). The sequence of the human protein was mutated to insert a threonine after residue 37, and to introduce a N39D mutation.
# (§2) The rate of phosphate (Pi) uptake into HEK293 cells was measured using a modification of the method described by Mohrmann et al. (Mohrmann, I., Mohrmann, M., Biber, J., and Murer, H. (1986) Am. J. Phys. 250(3 Pt 1):G323-30.) Transfected HEK293 cells were treated with a pharmacological agent to minimize endogenous PiT-mediated phosphate transport activity, such that the only remaining sodium-dependent phosphate transport activity is that which was bestowed by introduction of the NaP2b genes.
# Cells were seeded into 96-well plates at 25,000 cells/well and cultured overnight. Lipofectamine 2000 (Invitrogen) was used to introduce the NaP2b cDNA, and the cells were allowed to approach confluence during a second overnight incubation. […] Cells were then overlayed with either choline uptake buffer or sodium uptake buffer (14 mM Tris, 137 mM sodium chloride, 5.4 mM KCl, 2.8 mM CaCl2, 1.2 mM MgSO4, 100 uM KH2PO4, PiT-silencing agent, 1 mg/mL Bovine Serum Albumin, pH 7.4) containing 6-9 uCi/mL ^33P orthophosphoric acid (Perkin Elmer) and test compound. Each compound was tested at twelve concentrations ranging from 0.1 nM to 30 uM. Assays were run in duplicate.
# (§3) After incubation for 3-30 minutes at room temperature, assay mixtures were removed, and the cells were washed twice with ice cold stop solution (137 mM sodium chloride, 14 mM Tris, pH 7.4). Cells were lysed by addition of 20 μL 0.1% Tween 80 followed by 100 μL scintillation fluid, and counted using a TopCount (Perkin Elmer).
# (§4) pIC50 (the negative log of the IC50) values of the test compounds were calculated using GraphPad Prism.
# NaPi2b = assay: Competition with phosphate: Pi uptake assay repeated at 2.1 vs 0.1 mM phosphate; assay type: cell-based; conditions: potency at 2.1 vs 0.1 mM phosphate
# Description: To ascertain if an inhibitor was competitive for binding with phosphate, the procedure was repeated, but raising the concentration of the substrate in the assay mixture from 0.1 to 2.1 mM phosphate.
# [1] = Determination of compound Cmax and AUC after oral gavage; assay type: in vivo, Sprague-Dawley rats; conditions: Sprague-Dawley, rat plasma; for AUC: blood at 0.5-4 h
# Description: Blood samples were processed to plasma using K2EDTA as an anticoaglulant. Plasma samples were treated with acetonitrile containing an internal standard, precipitated proteins removed by centrifugation. Supernatants were analyzed by LC-MS/MS and compound concentrations were determined by interpolated from a standard curve prepared in plasma. All compounds were orally dosed at the dosage shown, and pharmacokinetic parameters determined.
# [2] = Fecal recovery of orally administered compounds; assay type: in vivo, Sprague-Dawley rats; conditions: rat, oral gavage, feces collected until 48 hr after dosing; same animals as Example 6
# Description: The animals were kept in metabolic cages and feces were collected from the time of dosing until 48 hr after dosing. Upon collection, feces was dried by lyophilization and ground to a visually homogenous powder. Duplicate samples of ground feces from each individual animal were weighed out and extracted using organic solvent. Extracted samples were then diluted into mobile phase and test compound levels were quantitatively determined by LC-MS/MS analysis as described in Example 6 except that the standard curve was prepared in a feces matrix.
# [3] = system: uptake of phosphorus from the intestine; assay: In vivo evaluation, co-dosing in chow: inhibition of uptake of phosphorus from the intestine; set-up: species or system Sprague-Dawley rats; conditions: rat, compound in chow, mean drug dose 115 mg/kg/day, versus control group
# Text: Male, 7-week-old Sprague-Dawley rats (Charles-River laboratories international, Hollister, Calif.) were allowed to acclimate for a minimum of 3 days. The experiment was initiated by switching animals to a synthetic diet (0.6% phosphorus and 0.6% calcium, Harlan Teklad TD.84122) for four days. After this time, the animals were placed into metabolic cages for daily monitoring of food and water consumption, as well as urine and fecal collections. Test compounds were incorporated into the powdered diet listed above containing 3% chocolate flavoring (w/w, BioServ #7345) at 1.3 mg test compound per gram of diet to achieve an average daily nominal dose of 100 mg/kg/day. The actual dose received by each animal was later determined by measuring prepared diet consumption and body weight. Urine samples were collected in three daily periods from 24-48, 48-72, and 72-96 hours of drug dosing. […] Phosphorus levels in the urine were determined by anion exchange chromatography using a Dionex ICS-3000 ion chromatography system. […] Elution of urine phosphate ions was monitored via conductivity detector and reported as ppm relative to a standard ion solution containing phosphate. Daily urinary P output relative to the P consumed in the prepared diet for each animal was calculated. […] The differences between the means of control and treated groups were evaluated by t tests.
# human NaP2b (SLC34A2) = molecular target: T2, human NaP2b (SLC34A2) (Homo sapiens, UniProt O95436); assay: Inhibition of NaP2b-mediated Pi uptake into transfected HEK293 cells (human); assay type: cell-based; conditions: 33P Pi uptake, 100 uM KH2PO4, human protein with Thr inserted after residue 37 and N39D, read-out: pIC50 range for human (converted)
# T2 construct: host or cells: HEK293
# T2 sequence (O95436 1-690): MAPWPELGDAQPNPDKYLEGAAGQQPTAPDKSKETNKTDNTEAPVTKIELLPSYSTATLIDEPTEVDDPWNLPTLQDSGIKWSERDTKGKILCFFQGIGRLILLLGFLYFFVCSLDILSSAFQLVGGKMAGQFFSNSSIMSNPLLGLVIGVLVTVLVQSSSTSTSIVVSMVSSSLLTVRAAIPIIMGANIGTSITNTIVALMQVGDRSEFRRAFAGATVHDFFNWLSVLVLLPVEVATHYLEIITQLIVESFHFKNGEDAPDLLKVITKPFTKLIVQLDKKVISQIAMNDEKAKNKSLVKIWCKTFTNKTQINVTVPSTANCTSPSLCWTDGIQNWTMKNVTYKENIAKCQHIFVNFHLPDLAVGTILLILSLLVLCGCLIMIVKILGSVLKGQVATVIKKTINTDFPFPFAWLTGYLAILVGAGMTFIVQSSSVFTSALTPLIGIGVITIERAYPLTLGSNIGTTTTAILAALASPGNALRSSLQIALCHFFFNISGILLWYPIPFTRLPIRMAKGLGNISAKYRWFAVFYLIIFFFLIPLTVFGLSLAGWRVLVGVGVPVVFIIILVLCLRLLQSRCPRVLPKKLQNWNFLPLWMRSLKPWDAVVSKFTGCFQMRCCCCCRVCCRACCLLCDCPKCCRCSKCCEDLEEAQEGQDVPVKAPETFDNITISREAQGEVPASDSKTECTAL
# Description: as §1, §2
# Cells were seeded into 96-well plates at 25,000 cells/well and cultured overnight. […]
# as §3, §4
Compound,IC50 (rat NaP2b (SLC34A2)) [nM],Competitive with respect to Pi? (NaPi2b),"Cmax ([1]; actual oral dose 11 mg/kg, LLOQ 0.5 ng/mL) [ng/mL]",AUC ([1]; actual oral dose 11 mg/kg) [ng·h/mL],% recovered in feces [2] [%],Mean % inhibition Urine Pout/P consumed [3] [%],IC50 (human NaP2b (SLC34A2)) [nM],"Cmax ([1]; actual oral dose 7.5 mg/kg, LLOQ 10 ng/mL) [ng/mL]",AUC ([1]; actual oral dose 7.5 mg/kg) [ng·h/mL]
"COCCNC(=O)c1cccc(SCc2cccc(C(=O)Nc3ccc(N4CCCCC4)cc3C(=O)c3cc4ccc(C(F)(F)F)cc4[nH]3)c2)c1 [Example 3, N-(2-Methoxyethyl)-3-(3-(4-(piperidin-1-yl)-2-(6-(trifluoromethyl)-1H-indole-2-carbonyl)phenylcarbamoyl)benzylthio)benzamide]",2000 to 25100,–,–,–,–,–,–,–,–
"CN(CCN1CCOCC1)C(=O)c1cccc(C(=O)Nc2ccc(N3CCCCC3)cc2C(=O)c2cc3ccc(C(F)(F)F)cc3[nH]2)c1 [Example 2, N1-Methyl-N1-(2-morpholinoethyl)-N3-(4-(piperidin-1-yl)-2-(6-(trifluoromethyl)-1H-indole-2-carbonyl)phenyl)isophthalamide 2,2,2-trifluoroacetate]",< 1000,No,91,< 97,2.9,20,< 1000,–,–
"O=C(O)CCSCc1cccc(C(=O)Nc2ccc(N3CCCCC3)cc2C(=O)c2cc3ccc(C(F)(F)F)cc3[nH]2)c1 [Example 1, 3-(3-((4-(Piperidin-1-yl)-2-(6-(trifluoromethyl)-1H-indole-2-carbonyl)phenyl)carbamoyl)benzylthio)propanoic acid]",1000 to 7940,–,–,–,34,–,1000 to 7940,299,433
